Test results: patent US9220269B2, “Use of 6-substituted 9-halogenalkyl purines for regulation of growth and development of whole plants, plant cells and plant organs; novel 6-substituted 9-halogenalkyl purines” (UNIVERZITA PALACKEHO V OLOMOUCI, priority 2010, dated 2015)

Key:
[1] = tested on: Amaranthus caudatus var. atropurpurea explants (cotyledons and hypocotyl); assay: Amaranthus bioassay (betacyanin formation); details: for activity (%) [10^−5 mol. l^−1 iP = 100%]: at the concentration with highest activity; for concentration with highest activity: betacyanin formation, 48 h in darkness
Experimental: The standard Amaranthus bioassay with several modifications was used to study cytokinin activity of the novel compounds. The seeds of Amaranthus caudatus var. atropurpurea were surface-sterilised in 10% (w/v) N-chlorobenzenesulfonamide for 10 min and washed 5 times with deionized water. They were placed in 14 cm Petri dishes containing paper tissues saturated with deionized water. After 72 h of cultivation at 25° C. in darkness, the roots of the seedlings were cut off. The explants, consisting of two cotyledons and hypocotyl, were placed in 5 cm Petri dishes onto two layers of filter paper soaked with 1 ml of the incubation medium containing 10 μmol of Na2HPO4—KH2PO4, pH 6.8, 5 μmol of tyrosine and the cytokinin to be tested. There were 20 explants per dish. The procedure was carried out under a green safe light in a darkroom. After 48 h of incubation at 25° C. in darkness, betacyanin was extracted by freezing the explants in 4 ml […] acetic acid. The concentration of betacyanin was determined from the absorbances at 537 nm and 620 nm as follows: ΔA=A537 nm−A620 nm. The values ΔA were plotted against the concentration tested, are means of five replicates and the entire test was repeated twice. […] The compounds to be tested were dissolved in dimethylsulfoxide (DMSO) and the solution brought up to 10^−3 M with distilled water. […] The activity obtained for 10^−5 M iP was postulated as 100%.

[2] = tested on: cytokinin-dependent tobacco callus Nicotiana tabacum L. cv. Wisconsin 38; assay: cytokinin-dependent tobacco callus bioassay (plant cell division); assay type: cell-based; details: for activity (%) [10^−5 mol. l^−1 iP = 100%] / activity (%) [10^−6 mol. l^−1 Kin = 100%]: at the concentration with highest activity; for activity (%) [10^−5 mol. l^−1 iP = 100%]: relative to 10^−5 M iP; for effect on callus growth (cell proliferation) in high concentrations: concentrations exceeding 10 μM, up to 100 μM, FIG. 1; for activity (%) [10^−6 mol. l^−1 Kin = 100%]: relative to 10^−6 M Kin; for concentration with highest activity: growth of tobacco callus, fresh weight after four weeks
Experimental: Stimulatory effect of newly prepared derivatives was tested using cytokinin-dependent tobacco callus. The cytokinin-dependent tobacco callus Nicotiana tabacum L. cv. Wisconsin 38 was maintained at 25° C. in darkness on modified MS medium, containing per 1 liter: 4 μmol of nicotinic acid, 2.4 μmol of pyridoxine hydrochloroide, 1.2 μmol of thiamine, 26.6 μmol of glycine, 1.37 μmol of glutamine, 1.8 μmol of myo-inositol, 30 g of sucrose, 8 g of agar, 5.37 μmol of NAA and 0.5 μmol of the compound tested. Subcultivation was carried out every three weeks. Fourteen days before the bioassay, the callus tissue was transferred to the media without the compound tested. The biological activity was determined from the increase of the fresh callus weight after four weeks of cultivation. Six replicates were prepared for each concentration of the compound tested and the entire test was repeated twice. […] The compounds to be tested were dissolved in dimethylsulfoxide (DMSO) and the solution brought up to 10^−3 M with distilled water. […] From the obtained data, the concentration with the highest activity was selected for each compound tested. Relative activity of the compound at this concentration was calculated (Table 2). The activity obtained for 10^−6 M of the N9-unsubstituted parent cytokinins Kin and 10^−5 M iP, respectively, was postulated as 100% biological activity. […] For comparison, compounds bearing halogenbutyl substituent in position 9 were prepared and tested.
Cytokinins are known to have stimulatory effects on cell proliferation in their optimal concentrations, however typically in the concentrations exceeding 10 μM their effect on cell division turns into inhibitory (Holub et al., Plant Growth Regul. 26, 109-115, 1998). Therefore the effect of the high concentrations of the newly prepared derivatives was tested using cytokinin-dependent tobacco callus described in Example 6. The novel compounds 1, 2 and 4 were tested in high concentrations (1-100 μM) and the activities were compared with activities of their N9-unsubstituted parent cytokinins.

[3] = tested on: detached leaf segments of Triticum aestivum cv. Hereward; assay: senescence bioassay on detached wheat leaf segments in dark conditions (chlorophyll retention); details: for concentration with highest activity: 96 h, 25° C., chlorophyll A665; for activity (%) [10^−4 mol. l^−1 Kin = 100%]: at the concentration with highest activity
Experimental: (§1) Seeds of winter wheat, Triticum aestivum cv. Hereward, were washed under running water for 24 hours and then sown on vermiculite soaked with Knop's solution. They were placed in the growth chamber at 25° C. with a 16/8 h light period at 50 μmol·m^−2·s^−1. After 7 days, the first leaf was fully developed and the second leaf had started to grow. A tip section of the first leaf, approximately 35 mm long, was removed from 5 seedlings and trimmed slightly to a combined weight of 100 mg. The basal ends of the five leaf tips were placed in the wells of a microtiter polystyrene plate containing 150 μL of the tested derivative solution each. The entire plate was inserted into a plastic box lined with paper tissues soaked in distilled water to prevent leaf sections from drying out. After 96 h incubation in the dark at 25° C., the leaves were removed and chlorophyll extracted by heating at 80° C. for 10 min in 5 mL of 80% ethanol (v/v). The sample volume was then restored to 5 mL by the addition of 80% ethanol (v/v). The absorbance of the extract was recorded at 665 nm. In addition, chlorophyll extracts from fresh leaves and leaf tips incubated in deionised water were measured. The results are means of five replicates and the entire test was repeated twice. […] The compounds to be tested were dissolved in dimethylsulfoxide (DMSO) and the solution brought up to 10^−3M with distilled water. […] The activity obtained for 10^−4 M Kin was postulated as 100%.

[4] = tested on: detached leaf segments of Triticum aestivum cv. Hereward; assay: senescence bioassay on detached wheat leaf segments in light conditions (chlorophyll retention); details: for concentration with highest activity: constant light 100 μmol·m^−2·s^−1, 22° C.; for activity (%) [10^−4 mol. l^−1 Kin = 100%]: light, at the concentration with highest activity
Experimental: as §1
The ability of the novel compounds to retard chlorophyll degradation in detached wheat leaves was tested also in the light conditions. The experiment was performed as described in Example 7 with modifications as follows—the incubation of the leaves with the compounds was done in the constant light (100 μmol·m^−2·s^−1) at 22° C.

[5] = tested on: Zea mays cv. CELLUX seedlings; assay: root growth and development of maize seedlings in hydroponics; assay type: in vivo; details: FIG. 3
Experimental: To investigate in vivo effect of the new derivatives on the root growth and development, maize seeds (Zea mays cv. CELLUX, Morseva, Czech Republic) were imbibed in tap water and germinated in dark on a wetted filter paper. After 2 days, the germinated seedlings were transferred to aerated hydroponic tanks filled with Hoagland's nutrient solution (fifteens per one liter of Hoagland solution). The plants were grown in a chamber with 16 hrs light (250 μm-2 s-1) at 27° C. and 8 hrs dark period at 20° C. The nutrient solution was supplemented with 5 μM and 10 μM concentration of 6-furfurylamino-9-(2-chloroethyl)purine or 5 μM cytokinin kinetin (Kin). All solutions used for cytokinin treatment including negative control contained DMSO in final concentration of 0.01%.

[6] = tested on: VP14 gene; assay: expression of VP14 stress gene in intact maize plants (RT-PCR); assay type: in vivo, Zea mays; details: 5 μM; for Relative amount of transcripts, leaf / Relative amount of transcripts, root: 3 days, related to untreated control = 1; for effect on VP14 expression / stress response: in words
Experimental: Abscisic acid has a direct effect on up-regulation of genes involved in stress responses (Tan et al., 1997, Proc Natl Acad Sci USA, 94, 12235-40). 5-days-old maize seedlings were carefully transferred from substrate to nutrient solution supplemented with tested compound in 5 μM concentration and were cultivated for another 3 days. Transcript copy number of VP14 gene was determined in roots and leaves of treated plants independently by method of reverse transcription polymerase chain reaction.

[7] = tested on: membrane lipid peroxidation in detached leaves of Triticum aestivum cv. Hereward; assay: membrane lipid peroxidation (MDA, TBA method) in detached wheat leaves during dark senescence
Experimental: A typical symptom associated with senescence as a direct consequence of increased reactive oxygen species is lipid peroxidation. Therefore the levels of MDA, a decomposition product of lipid peroxidation, were measured in detached wheat leaves that were exposed to the prepared novel derivatives and kinetin for four days in the dark as described in Example 7. MDA levels were measured using a thiobarbituric acid (TBA) method. In detail, 100 mg of fresh plant material was homogenized by high speed shaking in a ball mill (MM301, Retsch, Germany) with 1 mL of 80% methanol. The crude extract was centrifuged at 10,000×g for 5 min, and 100 μL aliquot of supernatant was vortexed with 100 μL of 0.5% (w/v) TBA containing 0.1% (w/v) trichloroacetic acid, and the resulting solution was then incubated for 30 min at 95° C. The samples were quickly cooled on ice and recentrifuged for 5 min at 1000×g. The absorbance of supernatant was measured at 532 nm with background subtraction at 600 nm and the amount of MDA-TBA complex was calculated from the coefficient of absorbance 155 mM^−1 cm^−1.

Structure (SMILES) | effect on callus growth (cell proliferation) in high concentrations [2] | concentration with highest activity [3] | activity (%) [10^−4 mol. l^−1 Kin = 100%] [3] | activity (%) [10^−6 mol. l^−1 Kin = 100%] [2] | concentration with highest activity [4] | activity (%) [10^−4 mol. l^−1 Kin = 100%] [4] | further results
CC(C)=CCNc1ncnc2nc[nH]c12 [6-(3-methylbut-2-en-1-yl)aminopurine, reference compound] | inhibited strongly the callus growth | – | – | – | – | – | activity (%) [10^−5 mol. l^−1 iP = 100%] [1]: 100%; concentration with highest activity [1]: 10^−5 mol. l^−1; activity (%) [10^−5 mol. l^−1 iP = 100%] [2]: 100%
BrCCCCn1cnc2c(NCc3ccco3)ncnc21 [6-furfurylamino-9-(4-bromobutyl)purine, reference compound] | – | 10^−4 mol. l^−1 | 1.2 (±2) % | 45 (±8) % | 10^−4 mol. l^−1 | 60 (±16) % | –
ClCCCCn1cnc2c(NCc3ccco3)ncnc21 [6-furfurylamino-9-(4-chlorobutyl)purine, reference compound] | – | 10^−4 mol. l^−1 | 72 (±13) % | 62 (±7) % | 10^−4 mol. l^−1 | 119 (±6) % | –
c1coc(CNc2ncnc3nc[nH]c23)c1 [6-furfurylaminopurine (Kin), 6-furfurylaminopurine, reference compound] | inhibited strongly the callus growth | 10^−4 mol. l^−1 | 100% | 100% | 10^−4 mol. l^−1 | 100% | root and shoot phenotype of maize plants ([5]; 5 μM in nutrient solution): dramatic thickening and shortening of primary root with no lateral root formation; Relative amount of transcripts, leaf [6]: 16.3 (±4.0); Relative amount of transcripts, root [6]: 3.4 (±0.8); effect on VP14 expression / stress response [6]: significantly increases VP14 expression in both root and leaves of maize
ClCCn1cnc2c(NCc3ccco3)ncnc21 [Compound 1, 6-furfurylamino-9-(2-chloroethyl)purine] | still kept their stimulatory effect | 10^−4 mol. l^−1 | 120 (±15) % | 120 (±6) % | 10^−5 mol. l^−1 | 116 (±7) % | root and shoot phenotype of maize plants ([5]; 5 μM in nutrient solution): almost identical to DMSO treated negative control; root and shoot phenotype of maize plants ([5]; 10 μM in nutrient solution): only slightly reduced length of primary and lateral roots; level of membrane lipid peroxidation reduced to ([7]; dark senescence, compared to untreated control): 67%; MDA ([7]; detached wheat leaves, four days in the dark, untreated control 18.9 (±2.2)): 12.8 (±1.0) nmol/g FW; Relative amount of transcripts, leaf [6]: 1.1 (±0.3); Relative amount of transcripts, root [6]: 0.4 (±0.1); effect on VP14 expression / stress response [6]: does not induce any stress response
BrCCn1cnc2c(NCc3ccco3)ncnc21 [Compound 2, 6-furfurylamino-9-(2-bromoethyl)purine] | – | 10^−4 mol. l^−1 | 102 (±3) % | 110 (±3) % | 10^−4 mol. l^−1 | 121 (±8) % | –
CC(C)=CCNc1ncnc2c1ncn2CCBr [Compound 3, 6-[(3-methylbut-2-en-1-yl)amino]-9-(2-bromoethyl)purine] | – | – | – | – | – | – | activity (%) [10^−5 mol. l^−1 iP = 100%] [1]: 116 (±9) %; concentration with highest activity [1]: 10^−4 mol. l^−1; activity (%) [10^−5 mol. l^−1 iP = 100%] [2]: 103 (±4) %
CC(C)=CCNc1ncnc2c1ncn2CCCl [Compound 4, 6-[(3-methylbut-2-en-1-yl)amino]-9-(2-chloroethyl)purine] | still kept their stimulatory effect | – | – | – | – | – | activity (%) [10^−5 mol. l^−1 iP = 100%] [1]: 128 (±11) %; concentration with highest activity [1]: 10^−4 mol. l^−1; activity (%) [10^−5 mol. l^−1 iP = 100%] [2]: 112 (±7) %
COc1cccc(CNc2ncnc3c2ncn3CCCl)c1 [Compound 38] | – | 10^−4 mol. l^−1 | 116 (±7) % | 106 (±5) % | – | – | concentration with highest activity [2]: 10^−5 mol. l^−1
Oc1cccc(CNc2ncnc3c2ncn3CCCl)c1 [Compound 47] | – | 10^−4 mol. l^−1 | 111 (±9) % | 111 (±2) % | – | – | concentration with highest activity [2]: 10^−5 mol. l^−1
C/C(=C\C(C)Nc1ncnc2c1ncn2CCCl)CO (stereo not drawn) [Compound 136, 6-(E)-(4-hydroxy-1,3-dimethylbut-2-en-1-ylamino)-9-(2-chloroethyl)purine] | – | 10^−4 mol. l^−1 | 114 (±4) % | 115 (±7) % | – | – | –
